How the values were obtained:
ASK1 [1] = target: T1, ASK1 (Homo sapiens (Human), UniProt Q99683); assay: Homogeneous Time-Resolved Fluorescence (HTRF) assay for inhibitory effect against ASK1 (Example C; KinEASE STK S3 kit); type: biochemical; details: 25 nM ASK1, 100 μM ATP, read-out: Enzyme Activity C IC50
Excerpt: (§1) The inhibitory effect of the compound of the invention on ASK1 may be evaluated by evaluating the phosphorylating activity of the enzyme on a known substrate with or without the presence of the test compound. Example B provides such an assay where myelin basic protein (Wako) is used as substrate and detection is by scintillation counting. It should be understood other substrates and detection mechanism may be used. A commercially available a kit, Cisbio's HTRF® KinEASE™ STK kit, has shown to be useful for evaluating ASK1 activity. The assay uses an anti-phosphoseric specific, Eu^3+-Cryptate labeled antibody to mark the phosphorylated product of ASK1 on a biotinylated kinase substrate, and detection is by time resolved fluorescence using XL665 labeled streptavidin. The fluorescence intensity is proportional to the amount of product formation. Example C provides the assay protocol.
Homogeneous Time-Resolved Fluorescence (HTRF) Assay for Measuring the Inhibitory Effect of Exemplified Compounds of the Invention Against ASK1
Recombinant human ASK1 is purchased from Millipore (Cat #14-606). The enzymatic assay of ASK1 is set up by using HTRF® KinEASE™ STK S3 kit, the Universal Assay for Serine/Threonine Kinases kit from CisBio.
The inhibitory properties of compounds to ASK1 may be determined using a white 384-well-plate format under the following reaction conditions: 25 nM ASK1, 1 μM CisBio STK S3-biotion peptide, 100 μM ATP, and 1%-2% DMSO in kinase assay buffer of 50 mM HEPES, pH 7.3, 10 mM NaCl, 10 mM MgCl2, 0.01% Brij35, 0.2 mM EDTA, and 1 mM DTT. Reaction product is determined quantitatively by HTRF after the addition of detection reagent SA-XL665 and STK-antibody-cryptate.
The assay reaction may be initiated as follows: 2 μl of the mixture of 3 μM CisBio STK S3-biotion peptide and 300 μM ATP with 2 μl of test compound (2 fold serial dilutions for 11 data points for each inhibitor) containing 3%-6% DMSO are added to each well of the plate, followed by the addition of 2 μL of 75 nM ASK1 to initiate the reaction (final enzyme concentration was 25 nM for ASK1). The reaction mixture may then be incubated at room temperature for 1 hour, and quenched and developed by the addition of 6 μL of 100-fold diluted STK-antibody-Cryptate and 250 nM SA-XL665 in Cisbio HTRF detection buffer (50 mM HEPES, pH7.0, 0.1% BSA, 0.8 M KF, and 20 mM EDTA). The fluorescence intensity is measured at 620 nm (Cryptate) and 665 nm (XL665) after a 1-2 hour incubation at room temperature. A ratio is calculated (665/620) for each well and is fitted to the standard IC50 curve to determine inhibition constants (IC50).
Target sequence in this assay (Q99683 649-946): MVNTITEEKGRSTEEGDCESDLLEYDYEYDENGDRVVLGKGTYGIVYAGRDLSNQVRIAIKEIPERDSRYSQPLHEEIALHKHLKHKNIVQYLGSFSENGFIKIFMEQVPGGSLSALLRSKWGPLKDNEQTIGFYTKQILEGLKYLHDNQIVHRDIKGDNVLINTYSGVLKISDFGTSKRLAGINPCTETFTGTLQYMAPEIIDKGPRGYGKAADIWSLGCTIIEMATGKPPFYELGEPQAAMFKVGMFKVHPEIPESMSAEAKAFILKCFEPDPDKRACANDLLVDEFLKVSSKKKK

ASK1 [2] = target: T1, ASK1; assay: Scintillation assay for inhibitory effect against ASK1 (Example B; myelin basic protein substrate, [γ-32P]ATP); type: biochemical; details: 2.5 μM ATP solution, read-out: Enzyme Activity B IC50
Excerpt: as §1
Target sequence in this assay (Q99683 650-1374): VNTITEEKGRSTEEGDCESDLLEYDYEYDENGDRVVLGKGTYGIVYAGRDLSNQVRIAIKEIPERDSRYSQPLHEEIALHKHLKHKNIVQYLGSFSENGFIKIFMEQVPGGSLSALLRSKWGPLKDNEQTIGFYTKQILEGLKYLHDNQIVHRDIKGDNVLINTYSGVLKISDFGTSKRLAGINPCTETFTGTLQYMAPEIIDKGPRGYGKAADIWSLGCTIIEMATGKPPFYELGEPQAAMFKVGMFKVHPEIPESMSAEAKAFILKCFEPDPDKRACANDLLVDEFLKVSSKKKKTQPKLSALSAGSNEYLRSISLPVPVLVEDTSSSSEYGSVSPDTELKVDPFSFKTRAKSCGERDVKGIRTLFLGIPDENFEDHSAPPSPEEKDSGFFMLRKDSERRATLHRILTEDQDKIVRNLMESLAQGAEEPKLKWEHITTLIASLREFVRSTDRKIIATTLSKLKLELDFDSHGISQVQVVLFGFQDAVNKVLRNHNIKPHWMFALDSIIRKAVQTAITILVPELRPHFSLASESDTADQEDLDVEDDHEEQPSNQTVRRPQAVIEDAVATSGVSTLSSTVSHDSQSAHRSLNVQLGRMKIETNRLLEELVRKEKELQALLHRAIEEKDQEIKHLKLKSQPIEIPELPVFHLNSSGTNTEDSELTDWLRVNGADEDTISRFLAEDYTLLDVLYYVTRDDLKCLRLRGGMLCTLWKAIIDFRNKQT
Cloning of cDNA encoding human ASK1 was conducted by PCR using primers, 5′-[…] […]-3′ (SEQ ID NO: 1) and 5′-AAAGCGGCCGCTCAA […]-3′ (SEQ ID NO: 2), from human heart cDNA library (Becton, Dickinson and Company). The PCR product was subjected to agarose gel (1%) electrophoresis, a 2.2 kb DNA fragment containing an ASK1 gene was recovered from the gel, and then digested with restriction enzymes, NotI and SalI, and inserted into a plasmid pFASTBAC1 (Invitrogen) to prepare a plasmid pFB-ASK1. The insert was verified by sequencing. Recombinant baculovirus was prepared according to the procedure of the Bac-to-Bac baculovirus expression system (Invitrogen).
Sf-21 cells were seeded to achieve 1×10^6 cells/mL in 100 mL of Sf-900 II SFM medium (Invitrogen) which contains 10% fetal calf serum and then cultured at 27° C. for 24 hrs. To express ASK1 in cells, 0.15 mL of the recombinant baculovirus virus stock was added to cells, and the then cultured for 60 hrs. The cells were separated from the culture solution by centrifugation at 3000 rpm for 10 min and washed once with PBS. The cells were suspended in 10 mL of lysis buffer (25 mM HEPES (pH 7.5), 1% Triton X, 130 mM NaCl, 1 mM EDTA, 1 mM DTT, 25 mM (3-glycerophosphate, Protease inhibitor complete (Roche), 1 mM sodium orthovanadate) and ruptured by four times of treatment with a homogenizer (POLYTRON) at 20000 rpm for 30 seconds. Active ASK1 protein was purified from a supernatant obtained by centrifugal separation at 40000 rpm for 45 min using anti-FLAG M2 Affinity Gel (Sigma).
Scintillation Assay for Measuring the Inhibitory Effect of Exemplified Compounds of the Invention Against ASK1
The test compounds (2.5 μL) dissolved in DMSO were added to wells containing 37.5 μL of the reaction solution (25 mM HEPES (pH 7.5), 10 mM magnesium acetate, 1 mM DTT) including 30 ng of active ASK1 protein and 1 μg of myelin basic protein (Wako), and incubated at room temperature for 5 min. To start the reaction, 10 μL of ATP solution (2.5 μM ATP, 0.1 μCi [γ-^32P]ATP) was added to wells. After incubating at room temperature for 30 min, the reaction was terminated by adding 50 μL of 20% TCA solution. The reaction solution was incubated at 4° C. for 30 min and an acid-insoluble fraction was transferred onto a GF/C filter (Packard) with Cell Harvester (Packard), and washed with 250 mM phosphoric acid. After drying at 45° C. for 60 min., 40 μL of Microscint 0 (Packard) was added and the radioactivity was measured with TopCount (Packard). The concentrations (IC50 value) of the test compounds necessary for 50% inhibition of kinase activity were calculated by PRISM 3.0 (Graphpad Software).

SMILES	IC50 (ASK1 [1]) [µM]	IC50 (ASK1 [2]) [µM]	melting point [°C]
CC(C)(O)c1ccc(C(=O)Nc2cc3c(cn2)c(Br)cn3CC2CC2)cc1 [Compound 10, N-(3-bromo-1-(cyclopropylmethyl)-1H-pyrrolo[3,2-c]pyridin-6-yl)-4-(2-hydroxypropan-2-yl)benzamide]	0.062	0.003	
C[C@](O)(CO)c1ccc(C(=O)Nc2cc3c(ccn3C3CC3)cn2)cc1 [Compound 17, (R)—N-(1-cyclopropyl-1H-pyrrolo[3,2-c]pyridin-6-yl)-4-(1,2-dihydroxypropan-2-yl)benzamide]	0.214	0.069	
Cn1cc(Cl)c2cnc(NC(=O)c3ccc([C@](C)(O)CO)cc3)cc21 [Compound 29, (S)—N-(3-chloro-1-methyl-1H-pyrrolo[3,2-c]pyridin-6-yl)-4-(1,2-dihydroxypropan-2-yl)benzamide]	0.038		210 to 212
CC(C)(O)c1ccc(C(=O)Nc2cc3c(ccn3CS(C)(=O)=O)cn2)cc1 [Compound 21, 4-(2-hydroxypropan-2-yl)-N-(1-(methylsulfonylmethyl)-1H-pyrrolo[3,2-c]pyridin-6-yl)benzamide]	12.4		
CC(C)(O)c1ccc(C(=O)Nc2cc3c(ccn3CC3CC3)cn2)cc1 [Compound 9, N-(1-(cyclopropylmethyl)-1H-pyrrolo[3,2-c]pyridin-6-yl)-4-(2-hydroxypropan-2-yl)benzamide]	0.237	0.081	
CCn1cc(Cl)c2cnc(NC(=O)c3ccc([C@@](C)(O)CO)c(C)c3)cc21 [Compound 33, (R)—N-(3-chloro-1-ethyl-1H-pyrrolo[3,2-c]pyridin-6-yl)-4-(1,2-dihydroxypropan-2-yl)-3-methylbenzamide]	0.041		
Cn1c(Cl)c(Cl)c2cnc(NC(=O)c3ccc([C@](C)(O)CO)cc3)cc21 [Compound 30, (S)—N-(2,3-dichloro-1-methyl-1H-pyrrolo[3,2-c]pyridin-6-yl)-4-(1,2-dihydroxypropan-2-yl)benzamide]			205 to 208
Cn1c(Cl)c(Cl)c2cnc(NC(=O)c3ccc(C(C)(C)O)cc3)cc21 [Compound 25, N-(2,3-dichloro-1-methyl-1H-pyrrolo[3,2-c]pyridin-6-yl)-4-(2-hydroxypropan-2-yl)benzamide]	0.146	0.06	
CCn1ccc2cnc(NC(=O)c3ccc([C@@](C)(O)CO)c(C)c3)cc21 [Compound 27, (R)-4-(1,2-dihydroxypropan-2-yl)-N-(1-ethyl-1H-pyrrolo[3,2-c]pyridin-6-yl)-3-methylbenzamide]	0.528		
CCn1ccc2cnc(NC(=O)c3ccc([C@@](C)(O)CO)cc3)cc21 [Compound 13, (R)-4-(1,2-dihydroxypropan-2-yl)-N-(1-ethyl-1H-pyrrolo[3,2-c]pyridin-6-yl)benzamide]	0.064	0.055	
Cn1c(Cl)c(Cl)c2cnc(NC(=O)c3ccc([C@@](C)(O)CO)cc3)cc21 [Compound 32, (R)—N-(2,3-dichloro-1-methyl-1H-pyrrolo[3,2-c]pyridin-6-yl)-4-(1,2-dihydroxypropan-2-yl)benzamide]	0.122		

Now from value to compound:

IC50 (ASK1 [1]) [µM]	IC50 (ASK1 [2]) [µM]	melting point [°C]	SMILES
0.029	0.019		Cc1cn(C)c2cc(NC(=O)c3ccc(C(C)(C)O)cc3)ncc12 [Compound 19, N-(1,3-dimethyl-1H-pyrrolo[3,2-c]pyridin-6-yl)-4-(2-hydroxypropan-2-yl)benzamide]
0.02	0.007		CCn1cc(C)c2cnc(NC(=O)c3ccc(C(C)(C)O)cc3)cc21 [Compound 12, N-(1-ethyl-3-methyl-1H-pyrrolo[3,2-c]pyridin-6-yl)-4-(2-hydroxypropan-2-yl)benzamide]
0.006	0.004		C[C@](O)(CO)c1ccc(C(=O)Nc2cc3c(cn2)c(Cl)cn3C2CC2)cc1 [Compound 23, (R)—N-(3-chloro-1-cyclopropyl-1H-pyrrolo[3,2-c]pyridin-6-yl)-4-(1,2-dihydroxypropan-2-yl)benzamide]
0.02	0.007		Cn1cc(Br)c2cnc(NC(=O)c3ccc([C@@](C)(O)CO)cc3)cc21 [Compound 16, (R)—N-(3-bromo-1-methyl-1H-pyrrolo[3,2-c]pyridin-6-yl)-4-(1,2-dihydroxypropan-2-yl)benzamide]
0.018	0.011		Cn1cc(Cl)c2cnc(NC(=O)c3ccc(C(C)(C)O)cc3)cc21 [Compound 24, N-(3-chloro-1-methyl-1H-pyrrolo[3,2-c]pyridin-6-yl)-4-(2-hydroxypropan-2-yl)benzamide]
0.01	0.002		CCn1cc(Br)c2cnc(NC(=O)c3ccc([C@@](C)(O)CO)cc3)cc21 [Compound 20, (R)—N-(3-bromo-1-ethyl-1H-pyrrolo[3,2-c]pyridin-6-yl)-4-(1,2-dihydroxypropan-2-yl)benzamide]
0.008	0.003		CCn1cc(Br)c2cnc(NC(=O)c3ccc(C(C)(C)O)cc3)cc21 [Compound 11, N-(3-bromo-1-ethyl-1H-pyrrolo[3,2-c]pyridin-6-yl)-4-(2-hydroxypropan-2-yl)benzamide]
0.007	0.002		C[C@](O)(CO)c1ccc(C(=O)Nc2cc3c(cn2)c(Br)cn3C2CC2)cc1 [Compound 22, (R)—N-(3-bromo-1-cyclopropyl-1H-pyrrolo[3,2-c]pyridin-6-yl)-4-(1,2-dihydroxypropan-2-yl)benzamide]
0.01	0.005		Cn1cc(Br)c2cnc(NC(=O)c3ccc(C(C)(C)O)cc3)cc21 [Compound 15, N-(3-bromo-1-methyl-1H-pyrrolo[3,2-c]pyridin-6-yl)-4-(2-hydroxypropan-2-yl)benzamide]
0.017	0.014		CCn1cc(C)c2cnc(NC(=O)c3ccc([C@@](C)(O)CO)cc3)cc21 [Compound 18, (R)-4-(1,2-dihydroxypropan-2-yl)-N-(1-ethyl-3-methyl-1H-pyrrolo[3,2-c]pyridin-6-yl)benzamide]
0.016			CC(C)(CO)c1ccc(C(=O)Nc2cc3c(cn2)c(Cl)cn3C2CC2)cc1 [Compound 28, N-(3-chloro-1-cyclopropyl-1H-pyrrolo[3,2-c]pyridin-6-yl)-4-(1-hydroxy-2-methylpropan-2-yl)benzamide]
